Results: PubChem BioAssay AID1963849 (Molecular Pharmacology Branch, DTP, NCI, 2024)

System: 299254-011-R-J1-PDC complex spheroid viability
Assay: Anticancer human tumor 299254-011-R-J1-PDC patient-derived melanoma cell line growth inhibition [POLQ]
Conditions: for IC50: curve of first compound; for viability, T/C: stronger effect = lower value
Outline: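 Growth inhibition in 3D: complex spheroids (tumor PDC, HUVEC, MSC) treated with POLQ inhibitor combinations; where Cmax unknown, highest tested concentration 10 microM, except SN-38 at 1 microM.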

[1] = second compound 0.0316 µM, first compound 0.0316 µM
[2] = second compound 0.0316 µM, first compound 0.1 µM
[3] = second compound 0.0316 µM, first compound 0.316 µM
[4] = second compound 0.0316 µM, first compound 1 µM
[5] = second compound 0.0316 µM, first compound 3.16 µM
[6] = second compound 0.0316 µM, first compound 10 µM
[7] = second compound 0.1 µM, first compound 0.0316 µM
[8] = second compound 0.1 µM, first compound 0.1 µM
[9] = second compound 0.1 µM, first compound 0.316 µM
[10] = second compound 0.1 µM, first compound 1 µM
[11] = second compound 0.1 µM, first compound 3.16 µM
[12] = second compound 0.1 µM, first compound 10 µM
[13] = second compound 0.316 µM, first compound 0.0316 µM
[14] = second compound 0.316 µM, first compound 0.1 µM
[15] = second compound 0.316 µM, first compound 0.316 µM
[16] = second compound 0.316 µM, first compound 1 µM
[17] = second compound 0.316 µM, first compound 3.16 µM
[18] = second compound 0.316 µM, first compound 10 µM
[19] = second compound 1 µM, first compound 0.0316 µM
[20] = second compound 1 µM, first compound 0.1 µM
[21] = second compound 1 µM, first compound 0.316 µM
[22] = second compound 1 µM, first compound 1 µM
[23] = second compound 1 µM, first compound 3.16 µM
[24] = second compound 1 µM, first compound 10 µM
[25] = second compound 3.16 µM, first compound 0.0316 µM
[26] = second compound 3.16 µM, first compound 0.1 µM
[27] = second compound 3.16 µM, first compound 0.316 µM
[28] = second compound 3.16 µM, first compound 1 µM
[29] = second compound 3.16 µM, first compound 3.16 µM
[30] = second compound 3.16 µM, first compound 10 µM
[31] = second compound 10 µM, first compound 0.0316 µM
[32] = second compound 10 µM, first compound 0.1 µM
[33] = second compound 10 µM, first compound 0.316 µM
[34] = second compound 10 µM, first compound 1 µM
[35] = second compound 10 µM, first compound 3.16 µM
[36] = second compound 10 µM, first compound 10 µM
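Note: spheroids exposed to drugs for one week before measurement.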
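Throughout, for viability, T/C: percent viability relative to DMSO vehicle control taken as 100%.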

With `CC1COCCN1c1cc(C2(O)CC3CCC(C2)O3)c2cnn(-c3ccn[nH]3)c2n1` (centres undefined) + Nc1ccc(C#CCN(C(=O)Cc2ncc(C(F)(F)F)cc2C(F)(F)F)c2ccc(F)cc2)nn1 the IC50 (second compound 0.0316 µM) was 168 nM, the IC50 (second compound 0.1 µM) was 173 nM and the IC50 (second compound 0.316 µM) was 130 nM. The IC50 (second compound 1 µM) was 138 nM, the IC50 (second compound 3.16 µM) was 98.2 nM and the IC50 (second compound 10 µM) was 97.1 nM. The viability, T/C [1] was 90.4%, the viability, T/C [2] was 61.6% and the viability, T/C [3] was 34.3%. For the same compound, the viability, T/C [4] was 27.1%, the viability, T/C [5] was 15.7% and the viability, T/C [6] was 11.1%. The viability, T/C [7] was 87.4%, the viability, T/C [8] was 55.3% and the viability, T/C [9] was 42.5%. It also gave a viability, T/C [10] of 29.8%, a viability, T/C [11] of 15.6% and a viability, T/C [12] of 13.2%. It also gave a viability, T/C [13] of 80.6%, a viability, T/C [14] of 49.6% and a viability, T/C [15] of 39.5%. The viability, T/C [16] was 26.6%, the viability, T/C [17] was 18.5% and the viability, T/C [18] was 11.5%. For the same compound, the viability, T/C [19] was 91%, the viability, T/C [20] was 55.7% and the viability, T/C [21] was 35.2%. For the same compound, the viability, T/C [22] was 21.5%, the viability, T/C [23] was 16.5% and the viability, T/C [24] was 12.9%. For the same compound, the viability, T/C [25] was 79.1%, the viability, T/C [26] was 49.5% and the viability, T/C [27] was 31.8%. It also gave a viability, T/C [28] of 23.1%, a viability, T/C [29] of 18.9% and a viability, T/C [30] of 14%. For the same compound, the viability, T/C [31] was 73.8%, the viability, T/C [32] was 48% and the viability, T/C [33] was 35.8%. For the same compound, the viability, T/C [34] was 22.1%, the viability, T/C [35] was 18.4% and the viability, T/C [36] was 15.5%.

`O=C(Nc1ccc(O)c(NS(=O)(=O)c2ccc(F)cc2)c1)c1ccc(-c2ccccc2)cc1` + Nc1ccc(C#CCN(C(=O)Cc2ncc(C(F)(F)F)cc2C(F)(F)F)c2ccc(F)cc2)nn1 showed an IC50 (second compound 0.0316 µM) of 9160 nM, an IC50 (second compound 0.1 µM) of 8490 nM and an IC50 (second compound 0.316 µM) of 8650 nM. The IC50 (second compound 1 µM) was 9340 nM, the IC50 (second compound 3.16 µM) was 8680 nM and the IC50 (second compound 10 µM) was > 10000 nM. The viability, T/C [1] was 104%, the viability, T/C [2] was 119% and the viability, T/C [3] was 97.4%. It also gave a viability, T/C [4] of 98.2%, a viability, T/C [5] of 97.3% and a viability, T/C [6] of 46.1%. It also gave a viability, T/C [7] of 102%, a viability, T/C [8] of 99.8% and a viability, T/C [9] of 91.4%. It also gave a viability, T/C [10] of 101%, a viability, T/C [11] of 95.6% and a viability, T/C [12] of 42.4%. For the same compound, the viability, T/C [13] was 108%, the viability, T/C [14] was 88.4% and the viability, T/C [15] was 107%. The viability, T/C [16] was 91.8%, the viability, T/C [17] was 85.9% and the viability, T/C [18] was 44.9%. The viability, T/C [19] was 108%, the viability, T/C [20] was 94.5% and the viability, T/C [21] was 95.7%. It also gave a viability, T/C [22] of 97.5%, a viability, T/C [23] of 87.3% and a viability, T/C [24] of 47.2%. It also gave a viability, T/C [25] of 106%, a viability, T/C [26] of 92.1% and a viability, T/C [27] of 92.7%. For the same compound, the viability, T/C [28] was 86.8%, the viability, T/C [29] was 79.9% and the viability, T/C [30] was 45.1%. It also gave a viability, T/C [31] of 83.2%, a viability, T/C [32] of 92.4% and a viability, T/C [33] of 88%. It also gave a viability, T/C [34] of 76%, a viability, T/C [35] of 74.7% and a viability, T/C [36] of 50.6%.
